Tests used:
Test in all cases: Western blotting
Type in all cases: cell-based
Details in all cases: H929 cells, 1 μM, 24 hours
BAX = system: BAX
Description: (§1) MM.1S, KMS20 and H929 cells are counted, diluted and plated. Cells are then […] with DMSO or different concentration of a compound of the present application for 6 hrs, 24 hrs or 48 hrs. MM cells are then collected and centrifuged at RT and the pellets are re-suspended in lysis buffer. Cell lysates are subjected to sodium dodecyl sulfate-polyacrylamide gel electrophoresis SDS-PAGE, transferred to nitrocellulose membranes, and immunoblotted with different antibodies.
(§2) MM.1S, KMS20 and H929 cells were counted, diluted and plated in six-well plates to a final concentration of 500,000 cells/well. Cells were then […] with DMSO or different concentration of a compound of the present application for 6 hrs, 24 hrs or 48 hrs. MM cells were then collected and centrifuged for 5 min, 1300 rpm at RT. The pellets were re-suspended in lysis buffer Laemli 1× (Laemli 5×: SDS 10%, DTT 500 mM, Tris-HCl pH6.8 0.4M, BromoFenol Blue, Glycerol 50%). Cell lysates were subjected to sodium dodecyl sulfate-polyacrylamide gel electrophoresis SDS-PAGE, transferred to nitrocellulose membranes, and immunoblotted with different antibodies: YAP1 (#4912), p-YAP1 (S127) (#13008), LATS1 (#9153), p-LATS1 (Thr1079) (#8654), MOB1 (#3863), p-MOB1 (Thr12) (#8843), p-MST1/p-MST2 (Thr183/Thr180) (#3681), p21 (#2947), PARP (#9532), ERK, STAT, and GAPDH (#5174) from Cell Signaling, Beverly, Mass., United States; STK4 (ab57836) (from Abcam, Cambridge, Mass., United States); PUMA (sc-28226), BAX (sc-20067), from Santa Cruz, Dallas, Tex., United States; β-actin from Sigma-Aldrich (St. Louis, Mo., United States). All antibodies were diluted 1:500, except for β-actin antibody (1:50,000 dilution). In FIG. 8, H929 cells were treated with Compound I-9 or DMSO at 1 μM concentration for 24 hours. Lysates were then obtained and immunoblot was performed using antibodies against PARP, YAP1, PUMA, BAX. p21, and GAPDH.

PARP = system: PARP
Description: as §1, §2

PUMA = system: PUMA
Description: as §1, §2

p21 = system: p21
Description: as §1, §2

Nc1ncc(-c2cccc([N+](=O)[O-])c2F)cc1-c1ccc2c(c1)CCNC2=O [Compound I-9, 6-(2-amino-5-(2-fluoro-3-nitrophenyl)pyridin-3-yl)-3,4-dihydroisoquinolin-1(2H)-one]
protein levels of BAX (BAX): upregulation
PARP cleavage (PARP): induction of PARP cleavage
protein levels of PUMA (PUMA): upregulation
protein levels of p21 (p21): upregulation

Source: patent publication US10710978B2, “STK4 inhibitors for treatment of hematologic malignancies” (Dana-Farber Cancer Institute, Inc., priority 2015, dated 2020)
